The nature of experiment [1]: DPPH free radical scavenging activity assay. To be noted: mean ± 1 SD. How it is done: The potential of the partitioned extracts was determined as previously described ([Khongkarat et al., 2020]). Five different concentrations of each sample were prepared in DMSO. […] The absorbance was measured at a wavelength of 517 nm ([…]) using a microplate reader. Ascorbic acid (vitamin C) was used as the standard reference. Each assay was performed in triplicate. The free radical scavenging activity was calculated from Eq. (1): (1) % DPPH radical scavenging activity=A-B/A×100, where A is the […] the negative control and B is the […] of the treatment.

Experiment [2] is described as follows: ABTS radical scavenging activity / Trolox equivalent antioxidant capacity (TEAC). To be noted: for ABTS EC50: mean ± 1 SD; for ABTS (µmol TE/g): fractions after SiG60-CC and HPLC, mean ± 1SD.
Experimental: The TEAC assay followed the described method ([Suriyatem et al., 2017]). The stock ABTS^•+ solution was prepared by reacting 7 mM ABTS solution with 2.45 mM potassium persulphate solution in distilled water at a 1:1 (v/v) ratio in the dark at room temperature for 16 h before use. The working ABTS^•+ solution was prepared by diluting the stock ABTS^•+ solution (one mL) with ethanol (35 mL) to get an absorbance at 734 nm (A734) of 0.700 ± 0.025. […] The percentage of inhibition was calculated according to Eq. (2), (2) % ABTS radical scavenging activity=A−B/A×100, where A is the A734of the negative control and B is the A734of the treatment.
The nature of experiment [3]: Ferric reducing antioxidant power (FRAP). The following applies: fractions after SiG60-CC and HPLC; mean ± 1SD. How it is done:
The FRAP assay was performed as previously described ([Sun et al., 2017]). The FRAP reagent was freshly prepared by mixing 100 mL of 300 mM acetate buffer (pH 3.6), 10 mL of 10 mM 2,4,6-tris(2pyridyl)-s-triazine solution in 40 mM hydrochloric acid, and 10 mL of 20 mM ferric chloride solution. Later, 100 µL of the sample at a desired concentration was added to three mL of the FRAP reagent and incubated at 37 °C in a water bath for 6 min. The absorbance was measured at a wavelength of 593 nm. Aqueous solutions of ferrous sulfate (0–2,000 µM) were used to establish the standard graph and the reducing capacity was expressed as µmole of Fe^2+/g extract. Each assay was performed in triplicate.

The target of another experiment is T1, LOX from soybean (Glycine max, UniProt P08170).
T1 sequence (P08170 1-839): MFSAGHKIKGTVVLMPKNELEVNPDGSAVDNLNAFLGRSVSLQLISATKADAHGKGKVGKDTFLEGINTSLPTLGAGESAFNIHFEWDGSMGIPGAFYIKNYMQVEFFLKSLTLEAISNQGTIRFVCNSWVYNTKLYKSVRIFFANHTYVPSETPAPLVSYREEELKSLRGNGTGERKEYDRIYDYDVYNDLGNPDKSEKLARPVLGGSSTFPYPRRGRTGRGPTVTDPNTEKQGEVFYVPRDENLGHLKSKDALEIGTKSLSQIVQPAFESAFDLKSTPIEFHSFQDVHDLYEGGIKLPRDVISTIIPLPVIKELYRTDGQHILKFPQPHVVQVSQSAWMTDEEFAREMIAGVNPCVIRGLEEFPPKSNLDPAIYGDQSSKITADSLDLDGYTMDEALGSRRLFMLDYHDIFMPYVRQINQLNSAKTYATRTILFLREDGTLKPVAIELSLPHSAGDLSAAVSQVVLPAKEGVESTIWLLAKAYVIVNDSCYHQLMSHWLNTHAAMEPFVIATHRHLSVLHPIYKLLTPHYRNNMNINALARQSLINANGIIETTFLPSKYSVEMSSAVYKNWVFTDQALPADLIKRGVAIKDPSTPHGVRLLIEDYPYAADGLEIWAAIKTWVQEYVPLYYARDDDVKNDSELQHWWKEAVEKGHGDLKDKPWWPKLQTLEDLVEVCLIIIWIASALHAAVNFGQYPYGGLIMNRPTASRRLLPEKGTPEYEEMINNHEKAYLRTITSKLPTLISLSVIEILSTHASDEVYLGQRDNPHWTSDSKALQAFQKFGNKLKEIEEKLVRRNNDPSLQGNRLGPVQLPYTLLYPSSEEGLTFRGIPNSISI
Kind of experiment: In vitro LOXI activity. The following applies: mean ± 1 SD.

Molecules are shown by their SMILES. “And” between values parts separate entries of the source, which are not always exact repeats. Equal values may be shown once. Marks after values point to notes of the source that are not given here.

As for `O=C1O[C@H]([C@@H](O)CO)C(O)=C1O` [Ascorbic acid, reference compound], the “DPPH EC50” value in experiment [1] is 68.00 ± 1.13^a µg/mL and 68.00 ± 1.13^b µg/mL; in experiment [1] (listed as ascorbic acid) it was 68.00 ± 1.13 µg/mL. For the same compound, the “ABTS EC50” value in experiment [2] is 44.54 ± 0.19^a µg/mL and 44.54 ± 0.19^c µg/mL and 44.54 ± 0.19^b µg/mL; in experiment [2] (listed as ascorbic acid), 44.54 ± 0.19 µg/mL.
As for `COc1cc(/C=C/C(=O)NCCCCN(CCCNC(=O)/C=C/c2ccc(O)c(OC)c2)C(=O)/C=C/c2ccc(O)c(OC)c2)ccc1O` [DCMMBP3-2, N^1, N^5, N^10-tri-(E, E, E)-feruloyl spermidine], the “DPPH EC50” value in experiment [1] is 57.7 ± 2.77^a µg/mL. Besides, in experiment [2], the “ABTS (µmol TE/g)” value is listed as 2,339.16 ± 34.62^b µmol TE/g and the “ABTS EC50” value was 28.29 ± 1.05^b µg/mL. Besides, the “FRAP (µmol Fe^2+/g)” value in experiment [3] is listed as 3,091.78 ± 44.48^b µmol Fe^2+/g. The “LOXI IC50” value at LOX from soybean is reported as 11.57 ± 0.93^a µg/mL.
As to `COc1cc(C=CC(=O)NCCCCN(CCCNC(=O)C=Cc2ccc(O)c(OC)c2)C(=O)C=Cc2ccc(O)c(OC)c2)ccc1O` [DCMMBP3-1, N^1, N^5, N^10-triferuloyl spermidine], the “DPPH EC50” value in experiment [1] was 53.05 ± 2.60^a µg/mL. In experiment [2], the “ABTS (µmol TE/g)” value is 2,527.63 ± 7.99^a µmol TE/g and the “ABTS EC50” value is listed as 25.38 ± 0.67^a µg/mL. For the same compound, in experiment [3], the “FRAP (µmol Fe^2+/g)” value is reported as 3,477.33 ± 52.07^a µmol Fe^2+/g. The “LOXI IC50” value on LOX from soybean is given as 11.31 ± 0.46^a µg/mL.

Values taken from article PMC9147323, “Phytochemical content, especially spermidine derivatives, presenting antioxidant and antilipoxygenase activities in Thai bee pollens” (PeerJ, 2022).
